The values that follow come from ChEMBL document CHEMBL3351452, “Chemical synthesis, cytotoxicity, selectivity and bioavailability of 5α-androstane-3α,17β-diol derivatives” (Bioorg Med Chem, 2014).

One data set deals with T47D. Nature of the data set: Antiproliferative activity against human T47D cells assessed as reduction in cell growth after 24 hrs by MTS assay. It counts as functional, cell-based.
A further data set deals with LNCaP. As to the kind of experiment: Antiproliferative activity against human LNCAP cells assessed as reduction in cell growth after 24 hrs by MTS assay. The format is functional, cell-based.
The next data set relates to MCF7. Nature of the data set: Antiproliferative activity against human MCF7 cells assessed as reduction in cell growth after 24 hrs by MTS assay. The format is functional, cell-based. The note with it: MCF7, 24 h.
A further data set relates to HL-60. Nature of the data set: Antiproliferative activity against human HL-60 cells assessed as reduction in cell growth after 24 hrs by MTS assay. It counts as functional, cell-based. The note with it: HL-60, 24 h.
Data set [1] is described as follows: Plasma concentration in Sprague-Dawley rat at 2.3 mg/kg, sc measured at 12 hrs by LC/MS/MS analysis. It counts as ADME, organism-based. More on the design: dose 2.3 mg/kg, route subcutaneous.
Data set [2] is described as follows: Plasma concentration in Sprague-Dawley rat at 2.3 mg/kg, sc measured at 3 hrs by LC/MS/MS analysis. Details: dose 2.3 mg/kg, route subcutaneous. It counts as ADME, organism-based.
Data set [3] can be described thus: Cytotoxicity against mouse WEHI13 cells assessed as cell proliferation after 48 hrs by MTT assay. It counts as cell-based. The note with it: WEHI13, 48 h.

For `C#C[C@]1(O)CC[C@H]2[C@@H]3CC[C@H]4C[C@H](O)[C@@H](N5CCN(C(=O)[C@@H]6CCCN6C(=O)c6cccc7ccccc67)CC5)C[C@]4(C)[C@H]3CC[C@@]21C`, the IC50 was determined as 8000 nM in the data set with T47D, 12 µM in the data set on LNCaP, 2300 nM with MCF7 and 7000 nM with HL-60.
Turning to `C[C@]12C[C@H](N3CCN(C(=O)[C@@H]4CCCN4C(=O)c4ccc5ccccc5n4)CC3)[C@@H](O)C[C@@H]1CC[C@@H]1[C@@H]2CC[C@]2(C)[C@@H](O)CC[C@@H]12`, the IC50 was determined as 100 nM in the data set on T47D, 0.04 µM in the data set with LNCaP, 100 nM in the data set with MCF7 and 1600 nM in the data set with HL-60. Further, the concentration at 12 h in data set [1] amounted to 3.1 ng/mL. For the same compound, in data set [2], the concentration at 3 h came to 163 ng/mL.
Take `C[C@]12C[C@H](N3CCN(C(=O)[C@@H]4CCCN4C(=O)C4CCCCC4)CC3)[C@@H](O)C[C@@H]1CC[C@@H]1[C@@H]2CC[C@]2(C)[C@@H](O)CC[C@@H]12`: the IC50 in data set [3] was 2700 nM.
Take `C[C@]12C[C@H](N3CCN(C(=O)[C@@H]4CCCN4C(=O)c4ccc5ccccc5c4)CC3)[C@@H](O)C[C@@H]1CC[C@@H]1[C@@H]2CC[C@@]2(C)[C@H]1CC[C@]2(C)O`: the IC50 was 2000 nM with T47D, over 10 µM in the data set on LNCaP, 1200 nM in the data set on MCF7 and 4700 nM in the data set with HL-60. In data set [1], the concentration at 12 h amounted to 32 ng/mL. The concentration at 3 h in data set [2] was found to be 122 ng/mL.
As to `CO[C@H]1CC[C@H]2[C@@H]3CC[C@H]4C[C@H](O)[C@@H](N5CCN(C(=O)[C@@H]6CCCN6C(=O)c6ccc7ccccc7c6)CC5)C[C@]4(C)[C@H]3CC[C@]12C`, the IC50 came to 5000 nM with T47D, 7 µM in the data set on LNCaP, 4500 nM in the data set on MCF7 and 4500 nM in the data set on HL-60. For the same compound, the concentration at 12 h in data set [1] is 7.6 ng/mL. The compound further showed a concentration at 3 h in data set [2] of 33.3 ng/mL.
Regarding `C[C@]12C[C@H](N3CCN(C(=O)[C@@H]4CCCN4C(=O)c4ccc5ncccc5c4)CC3)[C@@H](O)C[C@@H]1CC[C@@H]1[C@@H]2CC[C@]2(C)[C@@H](O)CC[C@@H]12`, the IC50 was 7000 nM in the data set on T47D, over 10 µM in the data set with LNCaP, 4900 nM in the data set on MCF7 and 4700 nM in the data set with HL-60. This compound yielded a concentration at 12 h in data set [1] of 1.3 ng/mL. Further, in data set [2], the concentration at 3 h is 194 ng/mL.
On to `C[C@]12C[C@H](N3CCN(C(=O)[C@@H]4CCCN4C(=O)c4cc5ccccc5cn4)CC3)[C@@H](O)C[C@@H]1CC[C@@H]1[C@@H]2CC[C@]2(C)[C@@H](O)CC[C@@H]12`, for which the IC50 in the data set on T47D stood at 200 nM; in the data set with LNCaP, 0.07 µM; in the data set with MCF7, 100 nM; with HL-60, 1400 nM; in data set [3], 3000 nM. In data set [1], the concentration at 12 h is 2.7 ng/mL. Also, in data set [2], the concentration at 3 h came out at 123 ng/mL.
In the case of `C[C@]12C[C@H](N3CCN(C(=O)[C@@H]4CCCN4C(=O)c4ccc5ccccc5c4)CC3)[C@@H](O)C[C@@H]1CC[C@@H]1[C@@H]2CC[C@]2(C)[C@@H](O)CC[C@@H]12`, the IC50 with T47D is 400 nM; in the data set with LNCaP it was 1.6 µM; in the data set with MCF7 it was 500 nM; in the data set on HL-60, 400 nM; in data set [3] it was over 10000 nM. Besides, in data set [1], the concentration at 12 h worked out at 8.8 ng/mL. The compound further registered a concentration at 3 h in data set [2] of 64.8 ng/mL.
With `C[C@]12C[C@H](N3CCN(C(=O)[C@@H]4CCCN4C(=O)c4cccc5ccccc45)CC3)[C@@H](O)C[C@@H]1CC[C@@H]1[C@@H]2CC[C@]2(C)C(=O)CC[C@@H]12`, the IC50 in the data set on T47D worked out at 7000 nM; in the data set on LNCaP it was 10 µM; in the data set with MCF7, 8000 nM; in the data set on HL-60, 8500 nM.
`COc1cccc2c1C(=O)c1c(O)c3c(c(O)c1C2=O)C[C@@](O)(C(=O)CO)C[C@@H]3O[C@H]1C[C@H](N)[C@H](O)[C@H](C)O1` [DOXORUBICIN]: the IC50 was 700 nM in the data set with T47D; 0.2 µM in the data set on LNCaP; over 10000 nM with MCF7; 700 nM in the data set on HL-60; 20 nM in data set [3].
Regarding `C[C@]12CC[C@@H](O)C[C@@H]1CC[C@@H]1[C@@H]2CC[C@]2(C)[C@@H](O)CC[C@@H]12` [ANDROSTANDIOL], the IC50 in data set [3] is over 10000 nM.
As to `C[C@]12C[C@H](N3CCN(C(=O)[C@@H]4CCCN4C(=O)c4cccc5ccccc45)CC3)[C@@H](O)C[C@@H]1CC[C@@H]1[C@@H]2CC[C@]2(C)[C@@H](O)CC[C@@H]12`, the IC50 came to 5000 nM in the data set on T47D, 0.3 µM in the data set with LNCaP, 4800 nM with MCF7 and 3700 nM with HL-60.
For `C[C@]12C[C@H](N3CCN(C(=O)[C@@H]4CCCN4C(=O)c4cc5ccccc5[n+]([O-])c4)CC3)[C@@H](O)C[C@@H]1CC[C@@H]1[C@@H]2CC[C@]2(C)[C@@H](O)CC[C@@H]12`, the 50% inhibitory concentration (IC50) with T47D was 1000 nM; in the data set on LNCaP, over 10 µM; in the data set with MCF7, 900 nM; in the data set with HL-60 it was 800 nM. The concentration at 12 h in data set [1] is 2.9 ng/mL. The same compound gave a concentration at 3 h in data set [2] of 158 ng/mL.
For `C[C@]12C[C@H](N3CCN(C(=O)[C@@H]4CCCN4C(=O)c4cnc5ccccc5c4)CC3)[C@@H](O)C[C@@H]1CC[C@@H]1[C@@H]2CC[C@]2(C)[C@@H](O)CC[C@@H]12`, the IC50 in the data set with T47D was 7000 nM; in the data set on LNCaP it was over 10 µM; with MCF7 it was 1200 nM; in the data set with HL-60, 4000 nM. Also, the concentration at 12 h in data set [1] is 2.3 ng/mL. The compound also had a concentration at 3 h in data set [2] of 163 ng/mL.
Regarding `C#C[C@]1(O)CC[C@H]2[C@@H]3CC[C@H]4C[C@H](O)[C@@H](N5CCN(C(=O)[C@@H]6CCCN6C(=O)c6ccc7ccccc7c6)CC5)C[C@]4(C)[C@H]3CC[C@@]21C`, the IC50 was 300 nM in the data set with T47D; 4.5 µM in the data set on LNCaP; 300 nM in the data set on MCF7; 1900 nM with HL-60; 1700 nM in data set [3]. Also, in data set [1], the concentration at 12 h amounted to 50.2 ng/mL. In data set [2], this compound registered a concentration at 3 h of 185 ng/mL.
`C[C@]12C[C@H](N3CCN(C(=O)[C@@H]4CCCN4C(=O)c4ccc5ccccc5n4)CC3)[C@@H](O)C[C@@H]1CC[C@@H]1[C@@H]2CC[C@]2(C)C(=O)CC[C@@H]12`: the IC50 in the data set on T47D was found to be 700 nM; in the data set on LNCaP it was 0.8 µM; in the data set on MCF7, 1000 nM; in the data set on HL-60, 600 nM. In data set [1], this compound displayed a concentration at 12 h of 0.3 ng/mL. This compound also registered a concentration at 3 h in data set [2] of 188 ng/mL.
